In PubChem BioAssay AID256 (DTP/NCI, 2004) one finds T/C data, which are given here for 21 compounds.

Where “and” joins values, the source holds several entries; their conditions need not be identical. Equal entries are not always repeated. Toxic doses and inconclusive results are not listed.

For this assay, the system named is CD2F1 mice, L1210 leukemia ip, survival T/C. The assay is described as follows: NCI In Vivo Anticancer Drug Screen. Data for tumor model L1210 Leukemia (intraperitoneal) in CD2F1 (CDF1) mice. Particulars: higher = longer survival. In outline: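 In this screen, transplantable tumors were grown in mice given either the compound or its vehicle. Results were expressed as the treated measurement relative to the control measurement.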

[1] abbreviates: endpoint: mean survival time, dose: 100.0 mg/kg/injection, schedule: Q01DX001 (ip), vehicle: Klucel (hydroxypropylcellulose) (HPC).
Where [2] appears, read: endpoint: mean survival time, dose: 200.0 mg/kg/injection, schedule: Q01DX001 (ip), vehicle: Klucel (hydroxypropylcellulose) (HPC).
[3] abbreviates: endpoint: mean survival time, dose: 400.0 mg/kg/injection, schedule: Q01DX001 (ip), vehicle: Klucel (hydroxypropylcellulose) (HPC).
Where [4] appears, read: endpoint: mean survival time, dose: 12.5 mg/kg/injection, schedule: Q04DX003 (ip), vehicle: saline with Tween-80.
The mark [5] stands for this setting: endpoint: mean survival time, dose: 25.0 mg/kg/injection, schedule: Q01DX009 (ip), vehicle: saline with Tween-80.
Setting [6] is: endpoint: mean survival time, dose: 25.0 mg/kg/injection, schedule: Q04DX003 (ip), vehicle: saline with Tween-80.
The mark [7] stands for this setting: endpoint: mean survival time, dose: 50.0 mg/kg/injection, schedule: Q01DX009 (ip), vehicle: saline with Tween-80.
Setting [8] is: endpoint: mean survival time, dose: 50.0 mg/kg/injection, schedule: Q04DX002 (ip), vehicle: saline with Tween-80.
Setting [9] is: endpoint: mean survival time, dose: 100.0 mg/kg/injection, schedule: Q01DX009 (ip), vehicle: saline with Tween-80.
Where [10] appears, read: endpoint: mean survival time, dose: 200.0 mg/kg/injection, schedule: Q01DX009 (ip), vehicle: saline with Tween-80.
The mark [11] stands for this setting: endpoint: mean survival time, dose: 400.0 mg/kg/injection, schedule: Q01DX009 (ip), vehicle: saline with Tween-80.
The mark [12] stands for this setting: endpoint: mean survival time, dose: 100.0 mg/kg/injection, schedule: Q04DX003 (ip), vehicle: saline with Tween-80.
Setting [13] is: endpoint: mean survival time, dose: 200.0 mg/kg/injection, schedule: Q04DX003 (ip), vehicle: saline with Tween-80.
Where [14] appears, read: endpoint: mean survival time, dose: 400.0 mg/kg/injection, schedule: Q04DX003 (ip), vehicle: saline with Tween-80.
[15] abbreviates: endpoint: mean survival time, dose: 100.0 mg/kg/injection, schedule: Q01DX001 (ip), vehicle: saline with Tween-80.
Where [16] appears, read: endpoint: mean survival time, dose: 200.0 mg/kg/injection, schedule: Q01DX001 (ip), vehicle: saline with Tween-80.
Where [17] appears, read: endpoint: mean survival time, dose: 400.0 mg/kg/injection, schedule: Q01DX001 (ip), vehicle: saline with Tween-80.

With `O=c1[nH]cnc2nc(C3OC(CO)C(O)C3O)[nH]c12` (stereo unspecified), the T/C was 102 % of control (endpoint: median survival time, dose: 4.5 mg/kg/injection, schedule: Q01DX005 (ip), vehicle: distilled water + Tween-80); 106 % of control (endpoint: median survival time, dose: 9.0 mg/kg/injection, schedule: Q01DX005 (ip), vehicle: distilled water + Tween-80); 98 % of control (endpoint: median survival time, dose: 18.0 mg/kg/injection, schedule: Q01DX005 (ip), vehicle: distilled water + Tween-80); 100 % of control (endpoint: median survival time, dose: 36.0 mg/kg/injection, schedule: Q01DX005 (ip), vehicle: distilled water + Tween-80); 107 % of control (endpoint: median survival time, dose: 72.0 mg/kg/injection, schedule: Q01DX005 (ip), vehicle: distilled water + Tween-80).
Turning to `CCOC(=O)C1(C(=O)OCC)CCC2Nc3ccccc3C(=O)N21` (stereo unspecified), the T/C is, setting by setting: under setting [1], 108 % of control; under setting [2], 108 % of control; under setting [3], 96 % of control.
Take `CCN(CC)CC[C-]=O.[NH-]CC[NH-].[Pd]`: the T/C is, setting by setting: (endpoint: mean survival time, dose: 3.13 mg/kg/injection, schedule: Q04DX003 (ip), vehicle: water) 101 % of control; (endpoint: mean survival time, dose: 6.25 mg/kg/injection, schedule: Q04DX003 (ip), vehicle: water) 101 % of control; (endpoint: mean survival time, dose: 12.5 mg/kg/injection, schedule: Q04DX003 (ip), vehicle: water) 101 % of control; (endpoint: mean survival time, dose: 25.0 mg/kg/injection, schedule: Q04DX003 (ip), vehicle: water) 93 % of control; (endpoint: mean survival time, dose: 50.0 mg/kg/injection, schedule: Q04DX003 (ip), vehicle: water) 93 % of control.
Take `N#[N+]c1c(C(=O)O)[nH]c(=O)[nH]c1=O`: the T/C is 100 % of control (endpoint: mean survival time, dose: 12.5 mg/kg/injection, schedule: Q01DX009 (ip), vehicle: saline with Tween-80); 101 % of control under setting [4]; 91 % of control under setting [5]; 102 % of control under setting [6]; 96 % of control under setting [7].
`C[N+](C)(Cc1ccccc1)C1c2ccccc2-c2ccc(Cl)cc21` (stereo unspecified): the T/C under setting [8] is 103 % of control.
Consider `COC12C(COC(C)=O)C3=C(C(=O)C(C)=C(N4CCCCC4)C3=O)N1CC1NC12` (stereo unspecified), for which the T/C is 97 % of control (endpoint: mean survival time, dose: 0.75 mg/kg/injection, schedule: Q01DX001 (ip), vehicle: distilled water + Tween-80); 103 % of control (endpoint: mean survival time, dose: 1.5 mg/kg/injection, schedule: Q01DX001 (ip), vehicle: distilled water + Tween-80); 105 % of control and 112 % of control (endpoint: mean survival time, dose: 3.0 mg/kg/injection, schedule: Q01DX001 (ip), vehicle: distilled water + Tween-80); 122 % of control and 105 % of control (endpoint: mean survival time, dose: 6.0 mg/kg/injection, schedule: Q01DX001 (ip), vehicle: distilled water + Tween-80); 112 % of control (endpoint: mean survival time, dose: 12.0 mg/kg/injection, schedule: Q01DX001 (ip), vehicle: distilled water + Tween-80).
Take `COc1ccc(C=Nc2ccccc2)cc1`: the T/C was 95 % of control under setting [9], 89 % of control under setting [10] and 89 % of control under setting [11].
For `COc1ccc2nc3cc(Cl)ccc3c(Nc3ccc(NC(C)=O)cc3)c2n1`, the T/C (endpoint: mean survival time, dose: 25.0 mg/kg/injection, schedule: Q01DX009 (ip), vehicle: other) was 92 % of control; the T/C (endpoint: mean survival time, dose: 50.0 mg/kg/injection, schedule: Q01DX009 (ip), vehicle: other) is 86 % of control; the T/C (endpoint: mean survival time, dose: 100.0 mg/kg/injection, schedule: Q01DX009 (ip), vehicle: other) is 94 % of control.
`[NH-]c1ncnc2c1ncn2C1OC(CO)C(O)C1O.[NH-]c1ncnc2c1ncn2C1OC(CO)C(O)C1O.[Pt+2]` (stereo unspecified): the T/C reads like this: under setting [4], 92 % of control; under setting [6], 95 % of control; (endpoint: mean survival time, dose: 50.0 mg/kg/injection, schedule: Q04DX003 (ip), vehicle: saline with Tween-80) 92 % of control; under setting [12], 89 % of control; under setting [13], 86 % of control.
As for `O=c1[nH]c(=S)[nH]c(-c2ccccc2)c1Cc1c(O)ccc2ccccc12`, the T/C (endpoint: mean survival time, dose: 100.0 mg/kg/injection, schedule: Q01DX001 (ip), vehicle: saline) was 101 % of control; the T/C (endpoint: mean survival time, dose: 200.0 mg/kg/injection, schedule: Q01DX001 (ip), vehicle: saline) is 100 % of control; the T/C (endpoint: mean survival time, dose: 400.0 mg/kg/injection, schedule: Q01DX001 (ip), vehicle: saline) is 97 % of control.
As for `O=c1[nH]cccc1O`, the T/C runs as follows: (endpoint: median survival time, dose: 50.0 mg/kg/injection, schedule: Q01DX009 (ip), vehicle: saline with Tween-80) 103 % of control and 104 % of control and 108 % of control; (endpoint: median survival time, dose: 62.5 mg/kg/injection, schedule: Q01DX009 (ip), vehicle: saline with Tween-80) 102 % of control; (endpoint: median survival time, dose: 66.7 mg/kg/injection, schedule: Q03HX027 (ip), vehicle: saline with Tween-80) 96 % of control; (endpoint: median survival time, dose: 125.0 mg/kg/injection, schedule: Q01DX009 (ip), vehicle: saline with Tween-80) 113 % of control; (endpoint: median survival time, dose: 133.0 mg/kg/injection, schedule: Q03HX027 (ip), vehicle: saline with Tween-80) 103 % of control; (endpoint: median survival time, dose: 250.0 mg/kg/injection, schedule: Q01DX009 (ip), vehicle: saline with Tween-80) 116 % of control. For the same compound, the T/C (endpoint: median survival time, dose: 266.0 mg/kg/injection, schedule: Q03HX027 (ip), vehicle: saline with Tween-80) was 155 % of control.
For `CCCCCCCCCCC(=O)CC`, the T/C was 100 % of control under setting [12], 102 % of control under setting [13] and 98 % of control under setting [14].
In the case of `CN1CCCN(C(=S)S)CC1`, the T/C runs as follows: (endpoint: mean survival time, dose: 25.0 mg/kg/injection, schedule: Q04DX003 (ip), vehicle: saline) 98 % of control; (endpoint: mean survival time, dose: 50.0 mg/kg/injection, schedule: Q04DX003 (ip), vehicle: saline) 103 % of control; (endpoint: mean survival time, dose: 100.0 mg/kg/injection, schedule: Q04DX003 (ip), vehicle: saline) 103 % of control.
With `CSc1ccc(NC(C)=O)cc1`, the T/C by setting is: under setting [1], 94 % of control; under setting [2], 96 % of control; under setting [3], 96 % of control.
As for `O=C(OC(CC[P+](c1ccccc1)(c1ccccc1)c1ccccc1)(C(=O)c1ccccc1)c1ccccc1)c1ccccc1` (stereo unspecified), the T/C was 104 % of control (endpoint: mean survival time, dose: 0.38 mg/kg/injection, schedule: Q01DX009 (ip), vehicle: saline); 105 % of control (endpoint: mean survival time, dose: 0.75 mg/kg/injection, schedule: Q01DX009 (ip), vehicle: saline); 93 % of control (endpoint: mean survival time, dose: 1.5 mg/kg/injection, schedule: Q01DX009 (ip), vehicle: saline).
For `COc1ccccc1NC(=O)Oc1ccccc1-c1ccccc1`, the T/C is 93 % of control under setting [5]; 98 % of control (endpoint: mean survival time, dose: 25.0 mg/kg/injection, schedule: Q04DX002 (ip), vehicle: saline with Tween-80); 93 % of control under setting [7]; 110 % of control under setting [8]; 93 % of control under setting [9]; 87 % of control and 104 % of control (endpoint: mean survival time, dose: 100.0 mg/kg/injection, schedule: Q04DX002 (ip), vehicle: saline with Tween-80).
As for `O=C(Nc1ccc(Cl)c(C(F)(F)F)c1)Nc1cc(Cl)ccc1Sc1cc(Cl)c(Cl)cc1S(=O)(=O)O`, the T/C is, setting by setting: (endpoint: mean survival time, dose: 100.0 mg/kg/injection, schedule: Q01DX001 (ip), vehicle: saline sonified) 102 % of control; under setting [9], 100 % of control; (endpoint: mean survival time, dose: 200.0 mg/kg/injection, schedule: Q01DX001 (ip), vehicle: saline sonified) 93 % of control; under setting [10], 105 % of control; (endpoint: mean survival time, dose: 400.0 mg/kg/injection, schedule: Q01DX001 (ip), vehicle: saline sonified) 93 % of control; under setting [11], 102 % of control.
For the compound `Cc1ccc(CCCC(=O)O)c(C)c1`, the T/C is 104 % of control under setting [12], 93 % of control under setting [13] and 98 % of control under setting [14].
Turning to `CC(CCC(=O)O)C1CCC2C3C(O)CC4CC(O)CCC4(C)C3CC(O)C12C` (stereo unspecified), the T/C was 96 % of control under setting [15], 100 % of control under setting [16] and 96 % of control under setting [17].
For the compound `CC(=O)CC(=O)N(C)Cc1ccccc1`, the T/C is 101 % of control under setting [15], 104 % of control under setting [16] and 107 % of control under setting [17].
As for `O=C1C=CC(=O)N1c1ccc(Oc2ccc(Cl)cc2)cc1`, the T/C reads like this: under setting [7], 103 % of control; under setting [9], 107 % of control; under setting [10], 88 % of control.
